Measurements as given in patent publication US8003783B2, “17B-hydroxysteroid dehydrogenase inhibitors” (Sterix Limited, priority 2004, dated 2011).
Read-outs that look alike come from different tables or passages of the source.

Key:
[1] = target: T1, 17β-HSD1 (Homo sapiens, UniProt P14061); test: 17β-HSD Type I activity in T-47D cells (E1→E2); assay type: cell-based; settings: for inhibition at 10 µM: T47D
T1 construct: was measured in intact cell monolayers of T47D and MDA-MB-231 breast cancer cells respectively; endogenous in cells; host or cells: T-47D human breast cancer cells
T1 sequence (P14061 1-328): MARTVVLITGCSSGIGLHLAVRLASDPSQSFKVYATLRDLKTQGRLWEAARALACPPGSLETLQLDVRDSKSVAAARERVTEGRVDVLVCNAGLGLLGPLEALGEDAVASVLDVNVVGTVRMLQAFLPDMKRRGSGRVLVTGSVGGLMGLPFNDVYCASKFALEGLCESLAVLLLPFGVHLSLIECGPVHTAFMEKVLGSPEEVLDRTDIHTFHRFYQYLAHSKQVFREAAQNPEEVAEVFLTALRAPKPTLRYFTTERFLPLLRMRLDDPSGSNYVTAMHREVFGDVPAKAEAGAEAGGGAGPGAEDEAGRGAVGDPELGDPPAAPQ

[2] = target: T2, 17β-HSD2 (Homo sapiens, UniProt P37059); test: 17β-HSD Type II activity in MDA-MB-231 cells (E2→E1); assay type: cell-based
T2 construct: was measured in intact cell monolayers of T47D and MDA-MB-231 breast cancer cells respectively; endogenous in cells; host or cells: MDA-MB-231 human breast cancer cells
T2 sequence (P37059 1-387): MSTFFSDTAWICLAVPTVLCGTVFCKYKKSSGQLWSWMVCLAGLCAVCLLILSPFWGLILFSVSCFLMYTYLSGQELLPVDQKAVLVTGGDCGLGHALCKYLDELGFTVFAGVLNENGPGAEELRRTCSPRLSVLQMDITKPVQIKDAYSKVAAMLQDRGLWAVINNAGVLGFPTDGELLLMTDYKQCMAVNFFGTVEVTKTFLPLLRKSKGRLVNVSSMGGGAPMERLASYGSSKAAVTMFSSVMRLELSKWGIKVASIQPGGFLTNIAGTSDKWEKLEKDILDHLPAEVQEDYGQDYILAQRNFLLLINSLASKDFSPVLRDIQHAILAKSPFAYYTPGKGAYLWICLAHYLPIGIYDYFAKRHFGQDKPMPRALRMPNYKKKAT

[3] = read-out: % inhibition of 17β-HSD1 @ 10 μM, 10 μM, T-47D cells, E1→E2
[4] = MDA-MB-231, read-out: % inhibition of 17β-HSD2 @ 10 μM
[5] = 10 μM, T-47D cells, E1→E2, read-out: % inhibition of 17β-HSD1 @ 10 μM
[6] = 10 μM, MDA-MB-231 cells, E2→E1, read-out: % inhibition of 17β-HSD2 @ 10 μM
[7] = T-47D cells, E1→E2, read-out: IC50 (17β-HSD1)

SMILES	inhibition at 10 µM [1, 3] [%]	inhibition at 10 µM [2, 4] [%]	inhibition at 10 µM [1, 5] [%]	inhibition at 10 µM [2, 6] [%]	IC50 [1, 7] [nM]	other results
CC(C)NC(=O)C1CC2C3CCc4cc(O)ccc4C3CC[C@]2(C)[C@H]1O (some centres unmarked) [compound 801]	70	-15				
Cn1cccc1CNC(=O)C1CC2C3CCc4cc(O)ccc4C3CC[C@]2(C)[C@H]1O (some centres unmarked) [compound 802]			86	-7		
Cc1cnc(CNC(=O)C2CC3C4CCc5cc(O)ccc5C4CC[C@]3(C)[C@H]2O)cn1 (some centres unmarked) [compound 803]			85	-18		
C[C@]12CCC3c4ccc(O)cc4CCC3C1Cc1c2n[nH]c1CO (some centres unmarked) [compound 804]			94	-1	950	
COC(=O)Cn1cc2c(n1)[C@@]1(C)CCC3c4ccc(O)cc4CCC3C1C2 (some centres unmarked) [compound 806]			95	19	920	
COC(=O)Cn1ncc2c1[C@@]1(C)CCC3c4ccc(O)cc4CCC3C1C2 (some centres unmarked) [compound 807]			79	30		
COCCn1cc2c(n1)[C@@]1(C)CCC3c4ccc(O)cc4CCC3C1C2 (some centres unmarked) [compound 808]			95	48	530	
COCCn1ncc2c1[C@@]1(C)CCC3c4ccc(O)cc4CCC3C1C2 (some centres unmarked) [compound 809]			83	55		
CC(C)Cn1cc2c(n1)[C@@]1(C)CCC3c4ccc(O)cc4CCC3C1C2 (some centres unmarked) [compound 812]	77	61				
CC(C)Cn1ncc2c1[C@@]1(C)CCC3c4ccc(O)cc4CCC3C1C2 (some centres unmarked) [compound 813]	70	44				
C[C@]12CCC3c4ccc(O)cc4CCC3C1Cc1c2n[nH]c1O (some centres unmarked) [compound 820, 6a-Methyl-4b,5,6,6a,8,10,10a,10b,11,12-decahydro-7,8-diaza-pentaleno[2,1-a]phenanthrene-2,9-diol]			86	7		
CC(NC(=O)C1CC2C3CCc4cc(O)ccc4C3CC[C@]2(C)[C@H]1O)c1ccccc1 (some centres unmarked) [compound 844]			90	12		IC50 [1]: 810 nM
C[C@]12CCC3c4ccc(O)cc4CCC3C1CC(C(=O)NCc1ccncc1)[C@@H]2O (some centres unmarked) [compound 845]			87	2.5		
CC(C)NC(=O)c1[nH]nc2c1CC1C3CCc4cc(O)ccc4C3CC[C@]21C (some centres unmarked) [compound 857, 2-Hydroxy-6a-methyl-4b,5,6,6a,8,10,10a,10b,11,12-decahydro-7,8-diaza-pentaleno[2,1-a]phenanthrene-9-carboxylic acid isopropyl amide]			57	0.3		
C[C@]12CCC3c4ccc(O)cc4CCC3C1Cc1c2n[nH]c1C(=O)NCc1cccnc1 (some centres unmarked) [compound 860, 2-Hydroxy-6a-methyl-4b,5,6,6a,8,10,10a,10b,11,12-decahydro-7,8-diaza-pentaleno[2,1-a]phenanthrene-9-carboxylic acid (pyridin-3-ylmethyl)-amide]			92	28	780	
C[C@]12CCC3c4ccc(O)cc4CCC3C1Cc1c2n[nH]c1C(=O)NCC1CCCO1 (some centres unmarked) [compound 892]	87	-4				
CNC(=O)c1[nH]nc2c1CC1C3CCc4cc(O)ccc4C3CC[C@]21C (some centres unmarked) [compound 893]	62	14				

SMILES	inhibition at 10 µM [1, 3] [%]	inhibition at 10 µM [2, 4] [%]	inhibition at 10 µM [1, 5] [%]	inhibition at 10 µM [2, 6] [%]	IC50 [1, 7] [nM]	other results
CCN(C)C(=O)c1[nH]nc2c1CC1C3CCc4cc(O)ccc4C3CC[C@]21C (some centres unmarked) [compound 894]			88	6		
Cn1cccc1CNC(=O)c1[nH]nc2c1CC1C3CCc4cc(O)ccc4C3CC[C@]21C (some centres unmarked) [compound 895]	89	-4			2300	
Cc1cnc(CNC(=O)c2[nH]nc3c2CC2C4CCc5cc(O)ccc5C4CC[C@]32C)cn1 (some centres unmarked) [compound 896]	80	61				
CN1CCN(C(=O)c2[nH]nc3c2CC2C4CCc5cc(O)ccc5C4CC[C@]32C)CC1 (some centres unmarked) [compound 897]	50	-0.7				
C[C@]12CCC3c4ccc(O)cc4CCC3C1Cc1c2n[nH]c1C(=O)NCc1ccccn1 (some centres unmarked) [compound 915]	93	9			880	
C[C@]12CCC3c4ccc(O)cc4CCC3C1Cc1c2n[nH]c1C(=O)NCCc1cccnc1 (some centres unmarked) [compound 916]	98.5	3			300	
C[C@]12CCC3c4ccc(O)cc4CCC3C1Cc1cn(CCC#N)nc12 (some centres unmarked) [compound 921]			95	44	730	
CC1(C#N)CC2C3CCc4cc(O)ccc4C3CC[C@]2(C)C1=O (some centres unmarked) [compound 924]			85	12		
Cn1c2c(c(=O)n1C)CC1C3CCc4cc(O)ccc4C3CC[C@]21C (some centres unmarked) [compound 942]			32	15		
C[C@]12CCC3c4ccc(O)cc4CCC3C1C/C(=C(/O)C(F)(F)F)C2=O (some centres unmarked) [compound 946]	69	-1.5				% inhibition of 17β-HSD1 @ 10 μM ([1]; 10 μM, T-47D cells, E1→E2): 87%
C[C@]12CCC3c4ccc(O)cc4CCC3C1CC1C(C(F)(F)F)=NNC12O (some centres unmarked) [compound 947]			83	2		
CC(C)(C)/C=C1\CC2C3CCc4cc(O)ccc4C3CC[C@]2(C)[C@H]1O (some centres unmarked) [compound 948]			84	27		
C[C@]12CCC3c4ccc(O)cc4CCC3C1Cc1c2n[nH]c1C(F)(F)F (some centres unmarked) [compound 949]			75	36		
CCc1cc2c(cc1OS(N)(=O)=O)CCC1C2CC[C@]2(C)C(=O)C(CC(=O)NCc3cccnc3)CC12 (some centres unmarked) [compound 1039]				-4	5100	
CCc1cc2c(cc1O)CCC1C2CC[C@]2(C)C(=O)C(CC(=O)NCc3cccnc3)CC12 (some centres unmarked) [compound 1040]				-5		IC50 [1]: 27 nM
COc1cc2c(cc1O)CCC1C2CC[C@]2(C)C(=O)C(CC(=O)NCc3cccnc3)CC12 (some centres unmarked) [compound 1191]			96	1.2	290	
